Results from paper PMC4831212 (The Biochemical journal, 2013).

Assays:
Test in all cases: FRET lipid mixing of SNARE liposomes
Format in all cases: biochemical
Settings in all cases: 37°C; 10 µM polyphenol (as in Figure 2)
SNAP-23/Syn4/VAMP2 [1] = biological target: T1, SNAP-23/Syn4/VAMP2 (Rattus norvegicus, UniProt O70377+P63045+Q08850)
SNAP-23/Syn4/VAMP8 = biological target: T2, SNAP-23/Syn4/VAMP8 (Rattus norvegicus, UniProt O70377+Q08850+Q9WUF4)
T2 sequence (O70377 1-210): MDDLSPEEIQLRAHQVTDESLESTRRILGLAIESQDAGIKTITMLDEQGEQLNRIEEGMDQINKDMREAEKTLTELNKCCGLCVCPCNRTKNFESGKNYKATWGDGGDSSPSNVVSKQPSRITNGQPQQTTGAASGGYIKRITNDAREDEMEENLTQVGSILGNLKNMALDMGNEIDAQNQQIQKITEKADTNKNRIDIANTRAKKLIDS
T2 sequence (Q08850 1-298): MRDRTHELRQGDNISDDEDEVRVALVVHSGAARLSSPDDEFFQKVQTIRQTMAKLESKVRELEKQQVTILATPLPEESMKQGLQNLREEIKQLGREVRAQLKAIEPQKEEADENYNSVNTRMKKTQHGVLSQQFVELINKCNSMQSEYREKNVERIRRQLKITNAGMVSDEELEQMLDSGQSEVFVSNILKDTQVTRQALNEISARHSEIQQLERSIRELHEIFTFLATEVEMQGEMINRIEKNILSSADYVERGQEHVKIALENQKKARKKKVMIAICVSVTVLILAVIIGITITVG
T2 sequence (Q9WUF4 1-100): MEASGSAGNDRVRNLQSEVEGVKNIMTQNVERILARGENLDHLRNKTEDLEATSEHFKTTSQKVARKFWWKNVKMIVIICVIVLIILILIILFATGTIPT

SNAP-23/Syn4/VAMP2 [2] = biological target: T1, SNAP-23/Syn4/VAMP2; remark: listed apart in the source

T1 sequence (P63045 2-116, one chain of several): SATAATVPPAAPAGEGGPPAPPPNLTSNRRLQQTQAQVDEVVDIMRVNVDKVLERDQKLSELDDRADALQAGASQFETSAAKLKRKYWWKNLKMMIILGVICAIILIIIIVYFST

Compound: O=c1cc(-c2ccc(O)cc2)oc2cc(O)cc(O)c12 [AP, apigenin]
- % inhibition (SNAP-23/Syn4/VAMP2 [1]): ~ 40%
- % inhibition (SNAP-23/Syn4/VAMP8): ~ 90%

Compound: Oc1cc(O)c2cc(O)c(-c3cc(O)c(O)c(O)c3)[o+]c2c1 [DL, delphinidin]
- % inhibition (SNAP-23/Syn4/VAMP8): ~ 60%

Compound: COc1cc2c(c(OC)c1OC)-c1c(cc3c(c1OC)OCO3)CC(C)C(C)C2 (centres unmarked) [GN, gomisin N]
- % inhibition (SNAP-23/Syn4/VAMP2 [2]): these polyphenols robustly inhibited SNAP-23/Syn4/VAMP2- driven fusion

Compound: O=c1c(O)c(-c2cc(O)c(O)c(O)c2)oc2cc(O)cc(O)c12 [MR, myricetin]
- % inhibition (SNAP-23/Syn4/VAMP2 [1]): 75-90%
- % inhibition (SNAP-23/Syn4/VAMP8): 75-90%

Compound: C[C@@H]1O[C@@H](OC[C@H]2O[C@@H](Oc3c(-c4ccc(O)c(O)c4)oc4cc(O)cc(O)c4c3=O)[C@H](O)[C@@H](O)[C@@H]2O)[C@H](O)[C@H](O)[C@H]1O [RT, rutin]
- % inhibition (SNAP-23/Syn4/VAMP2 [2]): did not inhibit SNAP-23/Syn4/VAMP8- driven fusion, but did inhibit SNAP-23/Syn4/VAMP2-driven fusion

Compound: O=C(O)/C=C/c1ccccc1 [TC, trans-cinnamic acid]
- % inhibition (SNAP-23/Syn4/VAMP2 [2]): these polyphenols robustly inhibited SNAP-23/Syn4/VAMP2- driven fusion
